Molecules are shown by their SMILES. Counter-ions that a name gives are not always drawn. Where only a bound is given, the exact number is not on record here.

Sequence of human Factor Xa (P00742 235-488 limits assumed): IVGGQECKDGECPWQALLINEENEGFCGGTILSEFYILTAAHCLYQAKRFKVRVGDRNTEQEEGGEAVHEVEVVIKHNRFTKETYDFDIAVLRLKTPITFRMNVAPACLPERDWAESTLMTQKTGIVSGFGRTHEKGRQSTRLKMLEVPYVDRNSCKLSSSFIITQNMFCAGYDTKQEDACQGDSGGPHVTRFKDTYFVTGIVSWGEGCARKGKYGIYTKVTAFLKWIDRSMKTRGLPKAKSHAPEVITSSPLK
Sequence of human Factor Xa (P00742 41-179 partner limits assumed): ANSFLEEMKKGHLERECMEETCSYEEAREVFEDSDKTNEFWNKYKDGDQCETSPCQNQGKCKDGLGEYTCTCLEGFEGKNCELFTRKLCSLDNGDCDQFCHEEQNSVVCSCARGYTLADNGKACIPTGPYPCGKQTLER

This test addresses human Factor Xa (Homo sapiens, UniProt P00742). Briefly: In vitro assay for inhibition of Factor Xa (2), fluorogenic assay. In kind it is biochemical. Particulars: substrate Rhodamine 110, bis-(CBZ-glycylglycyl-L-arginine amide 10 μM), Ki calculated from IC50. The method, then:
In Vitro Assay for Inhibition of Factor Xa (2)
All other compounds of the present invention were tested for their Factor Xa inhibitory activity as determined in vitro by their ability to inhibit human Factor Xa in a fluorogenic assay, using Rhodamine 110, bis-(CBZ-glycylglycyl-L-arginine amide as the fluorogenic substrate. Compounds were diluted from a 10 mM stock solution in dimethylsulfoxide at appropriate concentrations. Assay was performed at room temperature using buffer consisting of: 50 mM Tris-HCl, 150 mM NaCl, 5 mM CaCl2, pH 7.4. containing human Factor Xa (final conc. Of 0.0003U.ml−1). Compound and enzyme were preincubated for 15 min prior to addition of the substrate (final conc. of 10 μM). The reaction was stopped after 3 hrs with the addition of H-D-PHE-PRO-ARG-Chloromethylketone. […] To obtain IC50 values the data were analysed using ActivityBase® and XLfit®.
Calculation of Ki values:
Ki=IC50/(1+[Substrate]/Km)
The Ki value for the above assay can be obtained by dividing the IC50 value by 1.6.
A word on the Ki: it is a measure of affinity in units of concentration, obtained from inhibition or displacement. Regarding `O=C1[C@@H](NS(=O)(=O)c2ccc3cc(Cl)ccc3c2)CCN1c1ccc(-c2ncccn2)cc1F` [Example 81, 6-Chloro-N-[(3S)-1-(2-fluoro-4-pyrimidin-2-ylphenyl)-2-oxopyrrolidin-3-yl]naphthalene-2-sulfonamide], the Ki was under 1000 nM.
For `O=C1[C@@H](NS(=O)(=O)c2ccc3cc(Cl)ccc3c2)CCN1c1ccc(-c2ncccc2Cl)cc1F` [Example 82, 6-Chloro-N-{(3S)-1-[4-(3-chloropyridin-2-yl)-2-fluorophenyl]-2-oxopyrrolidin-3-yl}naphthalene-2-sulfonamide], the inhibition constant (Ki) is under 10 nM.
Consider `Cn1cnc(-c2ccc(N3CC[C@H](NS(=O)(=O)c4ccc5cc(Cl)ccc5c4)C3=O)c(F)c2)c1` [Example 84, 6Chloro-N-{(3S)-1-[2-fluoro-4-(1-methyl-1H-imidazol-4-yl)phenyl]-2-oxopyrrolidin-3-yl}naphthalene-2-sulfonamide Formate], for which the Ki is under 20 nM.
On to `CS(=O)(=O)c1ccccc1-c1ccc(N2CC[C@H](NS(=O)(=O)c3cnc(-c4ccc(Cl)s4)s3)C2=O)c(F)c1` [Example 86, 2-(5-Chlorothien-2-yl)-N-{(3S)-1-[3-fluoro-2′-(methylsulfonyl)-1,1′-biphenyl-4-yl]-2-oxopyrrolidin-3-yl}-1,3-thiazole-5-sulfonamide], for which the Ki was under 20 nM.
For `CS(=O)(=O)c1ccccc1-c1ccc(N2CC[C@H](NS(=O)(=O)c3cc4sc(Cl)cc4s3)C2=O)c(F)c1` [Example 87, 5-Chloro-N-{(3S)-1-[3-fluoro-2′-(methylsulfonyl)-1,1′-biphenyl-4-yl]-2-oxopyrrolidin-3-yl}thieno[3.2-b]thiophene-2-sulfonamide], the Ki was under 10 nM.
Then `CS(=O)(=O)c1ccccc1-c1ccc(N2CC[C@H](NS(=O)(=O)c3c(Cl)sc4ccsc34)C2=O)c(F)c1` [Example 88, 2-Chloro-N-{(3S)-1-[3-fluoro-2′-(methylsulfonyl)-1,1′-biphenyl-4-yl]-2-oxopyrrolidin-3-yl}thieno[3.2-b]thiophene-3-sulfonamide], with under 20 nM; and `O=C1[C@@H](NS(=O)(=O)c2ccc(-c3ccc(Cl)s3)s2)CCN1c1ccc(I)cc1F` [Example 92, 5′-Chloro-N-[(3S)-1-(2-fluoro-4-iodophenyl)-2-oxopyrrolidin-3-yl]-2,2′-bithiophene-5-sulfonamide], with under 10 nM; and `O=C1[C@H](NS(=O)(=O)c2cc3ccc(Cl)cc3s2)CCN1c1ccc([N+](=O)[O-])cc1F` [Example 94, 6-Chloro-N-[(3R)-1-(2-fluoro-4-nitrophenyl)-2-oxopyrrolidinyl]-1-benzothiophene-2-sulfonamide], with under 200 nM.
For `O=C1[C@@H](NS(=O)(=O)/C=C/c2ccc(Cl)s2)CCN1c1ccc([N+](=O)[O-])cc1F` [Example 95, (E)-2-(5-Chloro-2-thienyl)-N-[(3S)-1-(2-fluoro-4-nitrophenyl)-2-oxopyrrolidinyl]ethenesulfonamide], the Ki was under 20 nM.
Regarding `O=C1[C@@H](NS(=O)(=O)c2ccc(-c3ccc(Cl)s3)s2)CCN1c1ccc([N+](=O)[O-])cc1F` [Example 96, 5′-Chloro-N-[(3S)-1-(2-fluoro-4-nitrophenyl)-2-oxopyrrolidin-3-yl]-2,2′-bithiophene-5-sulfonamide], the inhibition constant (Ki) was under 20 nM.
In the case of `N#Cc1ccc(N2CC[C@H](NS(=O)(=O)c3cc4ccc(Cl)cc4s3)C2=O)c(F)c1` [Example 97, 6-Chloro-N-[(3S)-1-(4-cyano-2-fluorophenyl)-2-oxopyrrolidin-3-yl]-1-benzothiophene-2-sulfonamide], the Ki was under 10 nM.
Regarding `N#Cc1ccc(N2CC[C@H](NS(=O)(=O)/C=C/c3ccc(Cl)s3)C2=O)c(F)c1` [Example 98, (E)-2-(5-Chlorothien-2-yl)-N-[(3S)-1-(4-cyano-2-fluorophenyl)-2-oxopyrrolidin-3-yl]ethenesulfonamide], the Ki is under 200 nM.
With `N#Cc1ccc(N2CC[C@H](NS(=O)(=O)CCc3ccc(Cl)s3)C2=O)c(F)c1` [Example 99, 2-(5-Chlorothien-2-yl)-N-[(3S)-1-(4-cyano-2-fluorophenyl)-2-oxopyrrolidin-3-yl]ethanesulfonamide], the Ki was under 200 nM.
`O=C1[C@@H](NS(=O)(=O)c2ccc3cc(Cl)ccc3c2)CCN1c1ccccc1F` [Example 101, 6-Chloro-N-[(3S)-1-(2-fluorophenyl)-2-oxopyrrolidin-3-yl]naphthalene-2-sulfonamide]: the Ki was under 1000 nM.
`O=C1[C@@H](NS(=O)(=O)c2ccc3cc(Cl)ccc3c2)CCN1c1ccc(N2CCOCC2)c(F)c1` [Example 103, 6-Chloro-N-{(3S)-1-[3-fluoro-4-(4-morpholinyl)phenyl]-2-oxopyrrolidinyl}-2-naphthalenesulfonamide]: the Ki was under 1000 nM.
On to `NC(=O)c1ccc(N2CC[C@H](NS(=O)(=O)/C=C/c3ccc(Cl)s3)C2=O)nc1` [Example 106, 6-[(3S)-3-({[(E)-2-(5-Chlorothien-2-yl)ethenyl]sulfonyl}amino)-2-oxopyrrolidin-1-yl]nicotinamide], for which the Ki was under 200 nM.
Take `CN(C)C(=O)c1ccc(N2CC[C@H](NS(=O)(=O)c3cc4ccc(Cl)cc4s3)C2=O)c(F)c1` [Example 109, 4-((3S)-3-{[(6-Chloro-1-benzothien-2-yl)sulfonyl]amino}-2-oxopyrrolidin-1-yl)-3-fluoro-N,N-dimethylbenzamide]: the Ki was under 10 nM.
Next, `C/C(=C\S(=O)(=O)N[C@H]1CCN(c2ccc(C(=O)N(C)C)cc2F)C1=O)c1ccc(Cl)s1` [Example 110, 4-[(3S)-3({[(1E)-2-(5-Chlorothien-2-yl)prop-1-enyl]sulfonyl}amino)-2-oxopyrrolidin-1-yl]-3-fluoro-N,N-dimethylbenzamide]: under 10 nM; `CC(C)N(C)C(=O)c1ccc(N2CC[C@H](NS(=O)(=O)c3cc4ccc(Cl)cc4s3)C2=O)c(F)c1` [Example 111, 4-((3S)-3-{[(6-Chloro-1-benzothien-2-yl)sulfonyl]amino}-2-oxopyrrolidin-1-yl)-3-fluoro-N-isopropyl-N-methylbenzamide]: under 1000 nM.
Take `CC(=O)c1ccc(N2CC[C@H](NS(=O)(=O)/C=C/c3ccc(Cl)s3)C2=O)nc1` [Example 113, (E)-N-[(3S)-1-(5-Acetylpyridin-2-yl)-2-oxopyrrolidin-3yl]-2-(5-chlorothien-2-yl)ethenesulfonamide]: the Ki was under 200 nM.
Take `CC(=O)Nc1ccc(N2CC[C@H](NS(=O)(=O)c3cc4ccc(Cl)cc4s3)C2=O)c(F)c1` [Example 117, N-[4-((3S)-3-{[(6-Chloro-1-benzothien-2-yl)sulfonyl]amino}-2-oxopyrrolidinyl)-3-fluorophenyl]acetamide]: the Ki was under 1000 nM.
Then `CCC(=O)Nc1ccc(N2CC[C@H](NS(=O)(=O)c3cc4ccc(Cl)cc4s3)C2=O)c(F)c1` [Example 118, N-[4-((3S)-3-{[(6-Chloro-1-benzothien-2-yl)sulfonyl]amino}-2-oxopyrrolidinyl)-3-fluorophenyl]propanamide], with under 1000 nM; and `CC(C)N(C=O)c1ccc(N2CC[C@H](NS(=O)(=O)/C=C/c3ccc(Cl)s3)C2=O)c(F)c1` [Example 120, (E)-2-(5-Chlorothien-2-yl)-N-((3S)-1-{2-fluoro-4-[formyl(isopropyl)amino]phenyl}-2-oxopyrrolidin-3-yl)ethenesulfonamide], with under 10 nM; and `CC(C)N(C=O)c1ccc(N2CC[C@H](NS(=O)(=O)c3cc4ccc(Cl)cc4s3)C2=O)c(F)c1` [Example 121, 6-Chloro-N-((3S)-1-{2-fluoro-4-[formyl(isopropyl)amino]phenyl}-2-oxopyrrolidin-3-yl)-1-benzothiophene-2-sulfonamide], with under 20 nM.
Turning to `O=C1[C@@H](NS(=O)(=O)c2ccc3cc(Cl)ccc3c2)CCN1c1ccc(-n2ccnc2)cc1F` [Example 122, 6-Chloro-N-{(3S)-1-[2-fluoro-4-(1H-imidazol-1-yl)phenyl]-2-oxopyrrolidin-3-yl}naphthalene-2-sulfonamide], the inhibitory constant (Ki) was under 10 nM.
Regarding `Cc1cn(-c2ccc(N3CC[C@H](NS(=O)(=O)c4ccc5cc(Cl)ccc5c4)C3=O)c(F)c2)cn1` [Example 128, 6-Chloro-N-{(3S)-1-[2-fluoro-4-(4-methyl-1H-imidazol-1-yl)phenyl]-2-oxopyrrolidinyl}-2-naphthalenesulfonamide], the Ki is under 10 nM.
Take `O=C1[C@@H](NS(=O)(=O)c2ccc3cc(Cl)ccc3c2)CCN1c1ccc(-n2cccn2)cc1F` [Example 129, 6-Chloro-N-{(3S)-1-[2-fluoro-4-(1H-pyrazol-1-yl)phenyl]-2-oxopyrrolidinyl}-2-naphthalenesulfonamide]: the Ki was under 10 nM.
For `O=C1[C@@H](NS(=O)(=O)CCc2ccc(Cl)s2)CCN1c1ccc(I)cn1` [Example 132, 2-(5-Chlorothien-2-yl)-N-[(3S)-1-(5-iodopyridin-2-yl)-2-oxopyrrolidin-3-yl]ethane-1-sulfonamide], the Ki is under 20 nM.
As to `NC(=O)CN([C@H]1CCN(c2ccc(C(N)=O)cc2F)C1=O)S(=O)(=O)/C=C/c1ccc(Cl)s1` [Example 133, 4-[(3S)-3-((2-Amino-2-oxoethyl){[(E)-2-(5-chlorothien-2-yl)ethenyl]sulfonyl}amino)-2-oxopyrrolidin-1yl]-3-fluorobenzamide], the Ki was under 10 nM.
`CN(C)C(=O)c1ccc(N2CC[C@H](N(CC(N)=O)S(=O)(=O)/C=C/c3ccc(Cl)s3)C2=O)c(F)c1` [Example 134, 4-[(3S)-3-((2-Amino-2-oxoethyl){[(E)-2-(5-chlorothien-2-yl)ethenyl]sulfonyl}amino)-2-oxopyrrolidin-1-yl]-3-fluoro-N,N-dimethylbenzamide]: the Ki is under 10 nM.
